Experimental data from PMC9481026 (PLoS ONE, 2022).
In brackets after ≈: the same amount, converted by molar mass. Like-named read-outs stand apart in the source and are kept apart here.

Legend:
RVFV MP-12 = experiment: microbe, parasite or virus in culture; assay type: cell-based, Rift Valley fever virus; settings: for EC50: read-out: Estimated EC50
RVFV strain MP-12 [1] = experiment: microbe, parasite or virus in culture; assay type: cell-based, Rift Valley fever virus
RVFV strain MP-12 [2] = experiment: microbe, parasite or virus in culture; assay type: cell-based, Rift Valley fever virus; settings: read-out: A549 EC50
LACV = experiment: microbe, parasite or virus in culture; assay type: cell-based, La Crosse virus; settings: read-out: LACV EC50
ZIKV = experiment: microbe, parasite or virus in culture; assay type: cell-based, Zika virus; settings: read-out: ZIKV EC50
Human RNase H1 = target: T1, Human RNase H1 (Homo sapiens, UniProt O60930); experiment: biochemical
T1 construct: made in house; host or cells: E. coli
T1 sequence (O60930 1-286): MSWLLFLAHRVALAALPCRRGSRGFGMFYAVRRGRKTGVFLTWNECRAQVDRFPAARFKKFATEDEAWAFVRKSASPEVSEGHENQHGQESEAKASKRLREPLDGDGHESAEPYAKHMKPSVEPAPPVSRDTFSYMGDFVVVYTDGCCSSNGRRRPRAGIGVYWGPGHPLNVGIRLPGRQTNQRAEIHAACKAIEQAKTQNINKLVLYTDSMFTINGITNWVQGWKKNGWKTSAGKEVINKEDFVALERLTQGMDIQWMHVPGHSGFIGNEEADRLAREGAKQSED

C. neoformans = experiment: microbe, parasite or virus in culture; assay type: cell-based; settings: for MIC80: Cryptococcus neoformans, read-out: C. neoformans (MIC80, μM)
Staphylo-coccus spp. = experiment: organism not typed; assay type: cell-based
in vitro = settings: African green monkey
[3] = read-out: Human RNase H1 (IC50)
[4] = Rift Valley fever virus, Vero, 24 h

CC(=Nc1ccccc1F)c1c(C)cc(=O)n(O)c1O [Compound 516]
EC50 (RVFV MP-12): 19 µM | CC50 (Vero cells): > 120 µM

Cc1cc(O)c(=O)c(O)cc1C(=O)Nc1cccc(Cc2ccccc2)c1 [Compound 799]
EC50 (RVFV MP-12): 17 µM | CC50 (Vero cells): 62 µM

CC(=Nc1ccccc1Cl)c1c(C)cc(=O)n(O)c1O [Compound 668]
EC50 (RVFV strain MP-12 [1]; read-out: EC50): 19.2 µM | EC50 (RVFV strain MP-12 [1]; read-out: Vero EC50): 19.2 µM | EC50 (RVFV MP-12): 11 µM | EC50 (RVFV strain MP-12 [2]): 35.7 µM | EC50 (LACV): > 120 µM | EC50 (ZIKV): > 120 µM | IC50 (Human RNase H1; [3]): 165 µM | CC50 (Vero cells): > 120 µM | CC50 (A549 cells): 82 µM | CC50 (HepDES19): 76.8 µM

Cc1cc(O)c(=O)c(O)cc1-c1cccc(-c2cccc3ccccc23)c1 [Compound 234]
EC50 (RVFV MP-12): 19 µM | CC50 (Vero cells): > 120 µM

CC(C)c1cccc(=O)c(O)c1 [Compound 47, β-thujaplicin, reference compound]
EC50 (RVFV MP-12; Rift Valley fever virus, Vero): > 120 µM

Cc1ccc(/C=C/C(=O)c2ccccc(=O)c2O)cc1 [Compound 340]
EC50 (RVFV strain MP-12 [1]; read-out: EC50): 27.3 µM | EC50 (RVFV MP-12): 3 µM | IC50 (Human RNase H1; [3]): > 500 µM | C. neoformans (MIC80, μM) (C. neoformans): 49 µM | CC50 (Vero cells): 70 µM | CC50 (HepDES19): 18.7 µM

Cc1cc(O)c(=O)c(O)cc1C(=O)c1ccc(-c2ccncc2)cc1 [Compound 260]
EC50 (RVFV strain MP-12 [1]; read-out: RVFV (EC50)): 31.6 µM | IC50 (Human RNase H1; [3]): 277 µM | C. neoformans (MIC80, μM) (C. neoformans): 50 µM | CC50 (Vero cells): > 120 µM | CC50 (HepDES19): 45 µM

O=c1c(O)ccc(-c2ccco2)cc1O [Compound 265]
EC50 (RVFV strain MP-12 [1]; read-out: RVFV (EC50)): 15.4 µM | IC50 (Human RNase H1; [3]): 57 µM | Staphylo-coccus spp. (MIC80, μM) (Staphylo-coccus spp.): 30 µM | C. neoformans (MIC80, μM) (C. neoformans): 11 µM | CC50 (Vero cells): > 120 µM

Cc1cc(O)c(=O)c(O)cc1C(=O)c1ccc(-c2ccccc2)cc1 [Compound 118]
EC50 (RVFV strain MP-12 [1]; read-out: RVFV (EC50)): 11 µM | IC50 (Human RNase H1; [3]): > 500 µM | C. neoformans (MIC80, μM) (C. neoformans): 15 µM | CC50 (Vero cells): > 120 µM

Cc1cc(O)c(=O)c(O)cc1C(=O)N1CCSC1 [Compound 712]
EC50 (RVFV MP-12): > 20 µM | CC50 (Vero cells): 20 µM

Cc1cc(O)c(=O)c(O)cc1C(=O)NCCc1ccccc1 [Compound 710]
EC50 (RVFV MP-12): 17 µM | CC50 (Vero cells): > 120 µM

Cc1cc(O)c(=O)c(O)cc1S(=O)(=O)c1ccccc1 [Compound 336]
EC50 (RVFV strain MP-12 [1]; [4]): 9 µM | EC50 (RVFV MP-12; Rift Valley fever virus, Vero): 3 µM | IC50 (Human RNase H1): 85 µM | MIC80 (C. neoformans): 50 µM (≈ 14.6 µg/mL) | CC50 (Vero cells; African green monkey): 65.8 µM | CC50 (in vitro; CC50): 70 µM

O=C1c2ccccc2C(=O)N1O [Compound 138]
EC50 (RVFV MP-12): > 120 µM

CSc1cccc(O)c(=O)c1O [Compound 385]
EC50 (RVFV strain MP-12 [1]; read-out: RVFV (EC50)): 25.2 µM | IC50 (Human RNase H1; [3]): 176 µM | C. neoformans (MIC80, μM) (C. neoformans): 24 µM | CC50 (Vero cells): > 120 µM | CC50 (HepDES19): 100 µM

Cc1cc(O)c(=O)c(O)cc1C(=O)NCc1ccc(-c2ccccc2)cc1 [Compound 539]
EC50 (RVFV strain MP-12 [1]; read-out: EC50): 18.6 µM | EC50 (RVFV MP-12): 10 µM | IC50 (Human RNase H1; [3]): 105 µM | Staphylo-coccus spp. (MIC80, μM) (Staphylo-coccus spp.): 38 µM | C. neoformans (MIC80, μM) (C. neoformans): 4.5 µM | CC50 (HepDES19): 3.6 µM

Cc1cc(O)c(=O)c(O)cc1C(=O)N1CCN(c2ccc([N+](=O)[O-])c3nonc23)CC1 [Compound 920]
EC50 (RVFV MP-12): 19 µM | CC50 (Vero cells): > 120 µM

CCCCCCS(=O)(=O)c1ccc(S(=O)(=O)CCCCCC)c(O)c(=O)c1O [Compound 700]
Estimated EC50 (RVFV MP-12): inactive | EC50 (RVFV MP-12; Rift Valley fever virus, Vero): > 120 µM | CC50 (in vitro; Estimated CC50): > 120 µM

COC(=O)c1c(C)cc(O)c(=O)c(O)c1O [Compound 196]
EC50 (RVFV strain MP-12 [1]; read-out: RVFV (EC50)): 23.9 µM | IC50 (Human RNase H1; [3]): 408 µM | Staphylo-coccus spp. (MIC80, μM) (Staphylo-coccus spp.): 67 µM | CC50 (Vero cells): > 120 µM | CC50 (HepDES19): 6 µM

COc1ccc(CON=C(C)c2c[nH]c(=O)[nH]c2=O)cc1 [Compound 522]
EC50 (RVFV MP-12): > 1 µM | CC50 (Vero cells): 1 µM

O=C(/C=C/c1cccc(Br)c1)c1ccccc(=O)c1O [Compound 341]
EC50 (RVFV strain MP-12 [1]; [4]): 25.2 µM | EC50 (RVFV MP-12; Rift Valley fever virus, Vero): 2 µM | IC50 (Human RNase H1): > 500 µM | MIC80 (Staphylo-coccus spp.; read-out: Staphylo-coccus spp. (MIC80, μM)): 44 µM (≈ 14.6 µg/mL) | MIC80 (C. neoformans): 24 µM (≈ 7.95 µg/mL) | CC50 (in vitro; CC50): > 120 µM

Cc1cc(O)c(=O)c(O)cc1C(=O)N[C@@H](CCC(=O)OC(C)(C)C)C(=O)OC(C)(C)C [Compound 867]
EC50 (RVFV strain MP-12 [1]; [4]): 8.7 µM | EC50 (RVFV strain MP-12 [1]; Rift Valley fever virus, Vero, read-out: Vero EC50): 8.7 µM | EC50 (RVFV MP-12; Rift Valley fever virus, Vero): 6.66 µM | EC50 (RVFV strain MP-12 [2]; Rift Valley fever virus, A549, 24 h): 33 µM | EC50 (LACV; La Crosse virus, Vero C1008, 24 h): > 120 µM | EC50 (ZIKV; Zika virus, Vero C1008, 48 h): > 120 µM | MIC80 (C. neoformans): 9 µM (≈ 3.94 µg/mL) | CC50 (in vitro; CC50): > 120 µM | CC50 (in vitro; Vero CC50): > 120 µM

Cc1ccc(CNC(=O)c2cc(O)c(=O)c(O)cc2C)c(C)c1 [Compound 809]
EC50 (RVFV MP-12): 17 µM | CC50 (Vero cells): 64 µM
